In patent US20020146679A1, “Method for creating endothelial cell dysfunction in cell culture” (priority 2001, published 2002):
Values joined by “and” are separate entries in the source; they are usually repeats but may differ in a detail not shown here. Equal entries are not always repeated. “Also recorded” adds a separate entry of the source.

What was measured:
Assay type in all cases: cell-based, human
[1] = tested on: EA hy926 endothelial cells; assay: Tube formation assay on MATRIGEL (in vitro angiogenesis)
Experimental: According to an aspect of the invention, EA hy926 (EA) cells are initially grown in standard endothelial cell culture medium consisting of MCDB 131 (Clonetics Corp.) supplemented with 10 fetal bovine serum (FBS) (Hyclone laboratories), 100 U/mL penicillin/streptomycin, 50 μg/mL gentamicin, and other endothelial growth supplements (EGM bullet kit, Clonetics Corp.). […] Cells were grown in these conditions for 6 to 7 days. EA cells are then dispersed by trypsinization, counted, suspended in EGM media containing […], and plated onto the surface of a MATRIGEL® basement membrane protein matrix (0.5 mL/well, dispensed into 24-well tissue culture plates according to the manufacturer's instructions) at a density of 5×10^5 cells per well (24 well plate). The cells were then placed in a CO2 incubator at 37° C. and observed over a 16- to 24-hour period for cell differentiation into tube-like structures resembling capillaries. […]
EBM medium and its supplement were purchased from Clonetics. […] EA cells were then dispersed by trypsinization, counted, suspended in EGM media containing 10% FBS, and plated onto the surface of a MATRIGEL® basement membrane matrix (0.5 mL/well, dispensed into 24-well tissue culture plates according to the manufacturer's instructions) at a density of 5×10^5 cells per well (24-well plate). […]

[2] = tested on: EA hy926 cells; assay: Western blotting analysis of endothelial marker proteins
Experimental: The whole cell lysates were generated by suspending cell pellets with protein lysis buffer containing 10 mM Tris.CI (pH 7.6), 1 mM EDTA (pH 8.0), 100 mM NaCI, 1 μg/mL aprotinin, and 100 μg/mL phenylmethylsulfonyl fluoride. The lysates were sonicated for 15 seconds at output control level 4 with Sonifier 450 model manufactured by VWR Scientific products. Fifty microgram lysates protein for each sample was electrophoretically separated in 8% to 16% Tris-Glycine Gel and transferred to a nitrocellulose membrane. The proteins on the membrane were stained with PONCEAS solution to check if the proteins loading and transfer were even. The membranes were separately incubated with 5% dry milk Phosphate-buffered saline (PBS) at room temperature for 2 hours and followed by overnight incubation at 4° C. with fresh 5% dry milk PBS containing primary antibodies at 1:2000 dilution. The peroxidase conjugated secondary antibodies was diluted at 1:4000 dilution with 5% PBS buffer. The incubation with secondary antibody was carried out at room temperature for 1 hour. The membranes were then subject to staining with ECL solution and exposure to films.

[3] = tested on: EA.hyb926 Endothelial Cells; assay: Gene expression by Affymetrix gene chip profiling
Experimental: Control cells were treated with vehicle for the same times and RNA isolated as above. Transcript integrity was monitored using denaturing agarose gel electrophoresis in 1X MOPS. Biotinylated target RNA was prepared from 15 μg of total RNA using the Affymetrix protocol. Briefly, double-stranded cDNA was prepared from the RNA template using a modified oligo-dT primer containing a 5′ T7 RNA polymerase promoter sequence and the Superscript Choice System for cDNA Synthesis (Life Technologies Inc., Gaithersburg, Md.). Following phenol-chloroform extraction and ethanol precipitation, one-half of the cDNA reaction (0.5-1.0 μg) was used as template in an in vitro transcription reaction containing T7 RNA polymerase, a mixture of unlabeled ATP, CTP, GTP, and UTP, and biotin-11-CTP and biotin-16-UTP (BioArray High Yield Kit, ENZO, Inc.). The resulting biotinylated-cRNA “target” was purified on an affinity resin (RNeasy, Qiagen) and quantified using the convention that 1 O.D. Two-hundred sixty corresponds to 40 μg/mL of RNA. Typical yields ranged from 50 to 100 μg with transcript sizes between […] as determined by gel electrophoresis. Fifteen micrograms of biotinylated cRNA was randomly fragmented to an average size of 50 nucleotides by incubating at 94° C. for 35 minutes in 40 mM TRIS-acetate, pH 8.1, 100 mM potassium acetate, and 30 mM magnesium acetate. The fragmented cRNA was hybridized in a solution containing 100 mM MES, 1 M [Na^+], 20 mM EDTA, 0.01% TWEEN 20, 50 pM of Control Oligonucleotide B2 (Affymetrix, Inc.), 0.1 mg/mL of sonicated herring sperm DNA, and 0.5 mg/mL BSA for 16 hours at 45° C. on a Human 6800 Affymetrix GeneChip. Each hybridization included a mixture of four bacterial biotinylated-RNA transcripts (BioB, BioC, BioD, and cre) spiked at 1.5, 5, 25, and 100 pM, respectively. The hybridization reactions were processed and scanned according to the standard Affymetrix protocols.
EA cells incubated with 10 ng/mL TNFα(with 5% FBS) for 6 hours (short-term) or 6 days (chronic exposure) were evaluated for identification of cytokine-responsive endothelial genes. […] In addition, ecNOS expression was reduced 4-fold from control, consistent with the western and northern blot data (FIGS. 6 and 7).

[4] = SNAP 200 μM co-incubated with TNFα for 6 days
[5] = 6-day (chronic) TNFα treatment, 5% FBS

## CC(=O)NC(C(=O)O)C(C)(C)SN=O (racemic) [SNAP, S-Nitroso-N-acetyl-D, L-penicillamine, reference compound]
[1]; SNAP 200 μM co-incubated with TNFα 10 ng/mL for 6 days prior to plating on MATRIGEL
  tube formation / protection from TNFα-induced dysfunction: protects cells from TNFα induced dysfunction
[2]; [4]
  PAI-1 protein expression: reduces
  VCAM-1 protein expression: reduces
  caveolin-1 protein expression: reduces

## TNFα
[1]; TNFα exposure greater than 3 days (up to 6 days) in 5% FBS, then plated on matrigel
  serum-stimulated tube formation: cells no longer form tubes; also recorded: fail to form tubes
[2]; [5]
  CD31 protein expression: increased
  PAI-1 protein expression: increased
  VCAM-1 protein expression: increased
  caveolin-1 protein expression: increased
  ecNOS protein expression: markedly decreased
[3]; 6 day TNFα treatment, 10 ng/mL with 5% FBS
  ecNOS expression reduced from control: 4 fold
[3]; TNFα 6 hr, accession HG4069
  Short- (6 hr Tx) Fold Increase: MCP-1: 4.5 Fold
[3]; TNFα 6 hr, accession J05070
  Short- (6 hr Tx) Fold Increase: Type IV collagenase: 4.7 Fold
[3]; TNFα 6 hr, accession M13207
  Short- (6 hr Tx) Fold Increase: GM-CSF: 23.0 Fold
[3]; TNFα 6 hr, accession M14648
  Short- (6 hr Tx) Fold Increase: Vitronectin: 4.3 Fold
[3]; TNFα 6 hr, accession M21121
  Short- (6 hr Tx) Fold Increase: RANTES: 39.5 Fold
[3]; TNFα 6 hr, accession M28130
  Short- (6 hr Tx) Fold Increase: Interleukin-8: 4.6 Fold
[3]; TNFα 6 hr, accession M31165
  Short- (6 hr Tx) Fold Increase: TNF-Inducible, CD44 adhesion receptor: 2.7 Fold
[3]; TNFα 6 hr, accession M58603
  Short- (6 hr Tx) Fold Increase: NFkB1 (p105): 4.4 Fold
[3]; TNFα 6 hr, accession M59465
  Short- (6 hr Tx) Fold Increase: A20: TNFα-inducible transcription factor: 6.5 Fold
[3]; TNFα 6 hr, accession M60335
  Short- (6 hr Tx) Fold Increase: VCAM-1: 32 Fold and 32.3 Fold
[3]; TNFα 6 hr, accession M93718, nc = no change from vehicle treated
  Short- (6 hr Tx) Fold Increase: ecNOS (NOS 3): did not affect
[3]; TNFα 6 hr, accession U22431
  Short- (6 hr Tx) Fold Increase: HIF-1 α: 4.6 Fold
[3]; TNFα 6 hr, accession U43142
  Short- (6 hr Tx) Fold Increase: VEGF C: 7.8 Fold
[3]; TNFα 6 hr, accession U45878
  Short- (6 hr Tx) Fold Increase: Hiapl: 17.7 Fold
[3]; TNFα 6 hr, accession X04500
  Short- (6 hr Tx) Fold Increase: Prointerleukin-1β: 42.2 Fold
[3]; TNFα 6 hr, accession X07834
  Short- (6 hr Tx) Fold Increase: Manganese superoxide dismutase: 13.1 Fold
[3]; TNFα 6 hr, accession X53800
  Short- (6 hr Tx) Fold Increase: Macrophage inflammatory protein2-β: 11.2 Fold
[3]; TNFα 6 hr, accession X68742
  Short- (6 hr Tx) Fold Increase: Integrin, αV subunit (vitronectin receptor): 4.3 Fold
[3]; TNFα 6 hr, accession X83535
  Short- (6 hr Tx) Fold Increase: MT-MMP: 4.3 Fold
[3]; TNFα 6 day, accession HG4069
  Chronic- (6 day Tx) Fold Increase: MCP-1: 8.7 Fold
[3]; TNFα 6 day, accession J05070
  Chronic- (6 day Tx) Fold Increase: Type IV collagenase: 27.2 Fold
[3]; TNFα 6 day, accession M10321
  Chronic- (6 day Tx) Fold Increase: Von Willebrand factor: −8.3 Fold
[3]; TNFα 6 day, accession M13207
  Chronic- (6 day Tx) Fold Increase: GM-CSF: 37.1 Fold
[3]; TNFα 6 day, accession M14648
  Chronic- (6 day Tx) Fold Increase: Vitronectin: 6.8 Fold
[3]; TNFα 6 day, accession M21121
  Chronic- (6 day Tx) Fold Increase: RANTES: 62.8 Fold
[3]; TNFα 6 day, accession M28130
  Chronic- (6 day Tx) Fold Increase: Interleukin-8: 32.6 Fold
[3]; TNFα 6 day, accession M31165
  Chronic- (6 day Tx) Fold Increase: TNF-Inducible, CD44 adhesion receptor: 37.1 Fold
[3]; TNFα 6 day, accession M58603
  Chronic- (6 day Tx) Fold Increase: NFkB1 (p105): 2.9 Fold
[3]; TNFα 6 day, accession M59465
  Chronic- (6 day Tx) Fold Increase: A20: TNFα-inducible transcription factor: 6.6 Fold
[3]; TNFα 6 day, accession M93718
  Chronic- (6 day Tx) Fold Increase: ecNOS (NOS 3): −3.9 Fold
[3]; TNFα 6 day, accession U37518
  Chronic- (6 day Tx) Fold Increase: TRAIL: 4.8 Fold
[3]; TNFα 6 day, accession U43142
  Chronic- (6 day Tx) Fold Increase: VEGF C: 27.1 Fold
[3]; TNFα 6 day, accession U45878
  Chronic- (6 day Tx) Fold Increase: Hiapl: 6.9 Fold
[3]; TNFα 6 day, accession X04500
  Chronic- (6 day Tx) Fold Increase: Prointerleukin-1β: 213.1 Fold
[3]; TNFα 6 day, accession X07834
  Chronic- (6 day Tx) Fold Increase: Manganese superoxide dismutase: 63.4 Fold
[3]; TNFα 6 day, accession X53800
  Chronic- (6 day Tx) Fold Increase: Macrophage inflammatory protein2-β: 40.6 Fold
[3]; TNFα 6 day, accession X68742
  Chronic- (6 day Tx) Fold Increase: Integrin, αV subunit (vitronectin receptor): 6.8 Fold
[3]; TNFα 6 day, accession X72308
  Chronic- (6 day Tx) Fold Increase: MCP-3: 19.9 Fold
[3]; TNFα 6 day, accession X83492
  Chronic- (6 day Tx) Fold Increase: CD95 (Fas): 4.3 Fold
[3]; TNFα 6 day, accession X83535
  Chronic- (6 day Tx) Fold Increase: MT-MMP: 26.1 Fold
[3]; TNFα 6 day, accession X99886
  Chronic- (6 day Tx) Fold Increase: MCP-2: 131.7 Fold
[3]; TNFα exposure to EA cells
  increased expression of protective genes (superoxide dismutase, A-20, hiap-1, TRAIL, CD95): 4.3-17.7 fold
[3]; chronic TNFα exposure (6 days)
  increases in expression of proinflammatory (proatherogenic) genes: 6.8-75.8 fold
